Among the test systems are SW-620 colon; CAKI-1 renal; DU-145 prostate; M14 melanoma; UO-31 renal; TK-10 renal; SF-539 CNS; MDA-MB-435; OVCAR-4 ovarian; HL-60(TB) leukemia; CCRF-CEM leukemia.
Experiment in all cases: NCI anticancer screen, dose series, 48 h

SMILES strings stand for the structures.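 Growth conditions: 96-well plates. Treatment: test compound, 48 hours, 5 concentrations. Analysis: linear interpolation between bracketing concentrations; unreached endpoints set to highest concentration. GI50: concentration for 50% inhibition of growth. The concentration for full growth arrest is given as TGI.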

Consider `COc1cccc2c1C(=O)c1c(O)c3c(c(O)c1C2=O)C[C@@](O)(/C(C)=N/NC(=O)c1ccccc1)C[C@@H]3OC1CC(N)C(O)C(C)O1` (some centres not stated), for which the TGI in the assay with SW-620 colon came out at 4.89 µM; with CAKI-1 renal, 1.47 µM; with DU-145 prostate it was 0.903 µM; with M14 melanoma, 1.48 µM; in the assay on UO-31 renal, 8.69 µM; in the assay with TK-10 renal it was 5.85 µM. Moreover, the TGI with SF-539 CNS was 1.58 µM; in the assay with MDA-MB-435, 2.15 µM; with OVCAR-4 ovarian, 7.74 µM; in the assay with HL-60(TB) leukemia, 0.771 µM; with CCRF-CEM leukemia, 3.19 µM.
In the case of `COc1ccc(CCCC(=O)O)c(C)c1`, the TGI with SW-620 colon is greater than 100 µM; with CAKI-1 renal it was 51.1 µM; with DU-145 prostate, 56.6 µM; with M14 melanoma, greater than 100 µM; in the assay with UO-31 renal, greater than 100 µM; in the assay with TK-10 renal, greater than 100 µM. The TGI in the assay with MDA-MB-435, with OVCAR-4 ovarian, in the assay with HL-60(TB) leukemia and with CCRF-CEM leukemia was greater than 100 µM in each case.
On to `Nc1nc(N)c2nc(-c3ccco3)cnc2n1`, for which the TGI in the assay with CAKI-1 renal is greater than 100 µM; in the assay on M14 melanoma, greater than 100 µM; in the assay with UO-31 renal, greater than 100 µM; with TK-10 renal, greater than 100 µM; with SF-539 CNS, greater than 100 µM; in the assay on HL-60(TB) leukemia, 89.6 µM. In addition, the TGI in the assay with CCRF-CEM leukemia is greater than 100 µM.
On to `COc1cc2cc(C(=O)N3CC(CCl)c4c3cc(N(C)C)c3ccccc43)[nH]c2c(OC)c1OC` (configuration not stated), for which the TGI was greater than 100 µM in the assay with SW-620 colon; less than 0.01 µM in the assay on CAKI-1 renal; 0.492 µM with DU-145 prostate; 0.0185 µM with M14 melanoma; greater than 100 µM in the assay on TK-10 renal; 0.0132 µM with SF-539 CNS. In the assay on OVCAR-4 ovarian, the TGI amounted to 0.114 µM.
For the molecule `NC(Cc1c[nH]c2ccccc12)C(=O)O` (configuration not stated), the TGI in the assay on SW-620 colon, in the assay with CAKI-1 renal, in the assay on UO-31 renal, with SF-539 CNS, in the assay with OVCAR-4 ovarian and in the assay on HL-60(TB) leukemia was greater than 300 µM in each case. In the assay with CCRF-CEM leukemia, the TGI is greater than 300 µM.
Consider `CC12CC3(O)OC(O1)C1(COC(=O)c4ccccc4)C3CC21OC1OC(CO)C(O)C(O)C1O` (configuration not stated), for which the TGI in the assay on SW-620 colon, in the assay with CAKI-1 renal, in the assay on DU-145 prostate, with M14 melanoma, in the assay with UO-31 renal and in the assay with TK-10 renal was greater than 100 µM each time. In addition, the TGI in the assay with SF-539 CNS, in the assay with MDA-MB-435, with OVCAR-4 ovarian, in the assay with HL-60(TB) leukemia and in the assay on CCRF-CEM leukemia was greater than 100 µM throughout.
On to `Clc1ccc2c(NCCNc3ccnc4cc(Cl)ccc34)ccnc2c1`, for which the TGI with SW-620 colon came out at 31.3 µM; with CAKI-1 renal, 34.8 µM; with DU-145 prostate it was 48.2 µM; with M14 melanoma it was 31.2 µM; with UO-31 renal, 29.1 µM; in the assay with TK-10 renal, 34.6 µM. For the same molecule, the TGI turned out to be 25.3 µM with SF-539 CNS; 32 µM in the assay on MDA-MB-435; 35.5 µM with OVCAR-4 ovarian; 31 µM with HL-60(TB) leukemia; 46.2 µM in the assay with CCRF-CEM leukemia.
Consider `CC[C@@]1(O)C(=O)OCc2c1cc1n(c2=O)Cc2c-1nc1ccccc1c2/C=N\NC(=O)C(N)Cc1cnc[nH]1` (some centres not stated), for which the TGI with SW-620 colon was greater than 100 µM; in the assay on CAKI-1 renal it was 3.21 µM; in the assay on DU-145 prostate it was greater than 100 µM; in the assay with M14 melanoma, 2.63 µM; in the assay on UO-31 renal, 2.33 µM; in the assay with TK-10 renal, greater than 100 µM. For the same molecule, the TGI with SF-539 CNS was 0.538 µM; in the assay on MDA-MB-435, greater than 85.9 µM; in the assay with OVCAR-4 ovarian, greater than 100 µM; in the assay with CCRF-CEM leukemia it was 15 µM.
With `COc1cc(/C=C2\CN(S(=O)(=O)c3ccc(C)cc3)C/C(=C\c3cc(CN4CCCCC4)c(O)c(OC)c3)C2=O)cc(CN2CCCCC2)c1O`, the GI50 in the assay with CAKI-1 renal was 1.73 µM; in the assay with DU-145 prostate, 1.85 µM; in the assay with M14 melanoma it was 1.61 µM; in the assay on UO-31 renal, 1.6 µM; in the assay on TK-10 renal, 1.98 µM; with SF-539 CNS it was 1.74 µM. The GI50 in the assay with MDA-MB-435 is 0.36 µM; with HL-60(TB) leukemia, 1.88 µM; in the assay on CCRF-CEM leukemia, 0.307 µM. The TGI turned out to be 3.27 µM in the assay on CAKI-1 renal; 3.53 µM in the assay with DU-145 prostate; 3.27 µM in the assay with M14 melanoma; 3.03 µM with UO-31 renal; 3.63 µM in the assay with TK-10 renal; 3.31 µM in the assay with SF-539 CNS. The results for the TGI in the assay with MDA-MB-435, in the assay on HL-60(TB) leukemia and in the assay with CCRF-CEM leukemia were 1.39 µM, 4.34 µM and 1.13 µM, respectively.
